Data from BindingDB's records for doi:10.1021/acs.jmedchem.9b01143 (2019).

Molecular target: Activin receptor type-2A (ACVR2A) (Homo sapiens) (UniProt P27037)
Assay: Inhibition of human recombinant ACTR2 (162 to end residues) using casein as substrate incubated for 120 mins in presence of [gamma-33P]ATP by radiometric scintillation counting analysis

IC50: > 10 µM
Structure (SMILES): CN(C)c1ccc(C(=O)Nc2cccc(NC(=O)COc3ccc4c(=O)ccoc4c3)c2)cc1
